Assay results taken from patent US20240300980A1, “HETEROCYCLIC COMPOUNDS AS KRAS INHIBITOR, AND PREPARATION THEREFOR AND USE THEREOF IN TREATMENT” (SHANGHAI KECHOW PHARMA, INC., priority 2021, published 2024).

test system: AGS cells (KRAS^G12D); test: Detection of cell proliferation in vitro by MTT/MTS method (cell activity experiment); format: cell-based; details: Homo sapiens, AGS, 72 h, AGS cells; MTT/MTS; 3 days of drug treatment; read-out: AGS IC50
Outline: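 KRAS G12D AGS cells seeded at 1000 per well, compound added 24 h later, 0.5% final DMSO. Viability read after 3 days of treatment by MTT (solubilised in DMSO) or MTS, 4 h, absorbance 490 nm. IC50 from dose–response curves versus DMSO control.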

Row | SMILES | IC50
1 | CCc1c(F)ccc2cc(O)cc(-c3ccc4c(N5C[C@H]6CC[C@@H](C5)N6)nc(OC[C@]56CCCN5[C@@H](COC(=O)N(C)C)CC6)nc4n3)c12 [Example 146, ((3R,7aR)-7a-(((4-((1R, 5S)-3,8-diazabicyclo [3.2.1]octan-3-yl)-7-(8-ethyl-7-fluoro-3-hydroxynaphthalen-1-yl)pyrido[2,3-d]pyrimidin-2-yl)oxy)methyl)hexahydro-1H-pyrrolizin-3-yl)methyl dimethylcarbamate] | > 2500 nM
2 | C#Cc1c(F)ccc2cc(O)cc(-c3ccc4c(N5C[C@H]6CC[C@@H](C5)N6)c(C#N)c(OC[C@@]56CCCN5C[C@H](F)C6)nc4c3F)c12 [Example 177, 4-((1R,5S)-3,8-diazabicyclo[3.2.1]octan-3-yl)-7-(8-ethynyl-7-fluoro-3-hydroxynaphthalen-1-yl)-8-fluoro-2-(((2R,7aS)-2-fluorotetrahydro-1H-pyrrolizin-7a(5H)-yl)methoxy)quinoline-3-carbonitrile] | 530 nM
3 | Cc1cc(N)nc(-c2ncc3c(N4C[C@H]5CC[C@@H](C4)N5)nc(OC[C@@]45CCCN4C[C@H](F)C5)nc3c2F)c1C1CC1 [Example 72, 6-(4-((1R,5S)-3,8-diazabicyclo[3.2.1]octan-3-yl)-8-fluoro-2-(((2R,7aS)-2-fluorotetrahydro-1H-pyrrolizin-7a(5H)-yl)methoxy)pyrido[4,3-d]pyrimidin-7-yl)-5-cyclopropyl-4-methylpyridin-2-amine] | > 2500 nM
4 | Cc1cc(N)nc(-c2ncc3c(N4C[C@H]5CC[C@@H](C4)N5)nc(OCC4(CN5CCCC5)CC4)nc3c2F)c1C1CC1 [Example 9, 6-(4-((1R,5S)-3,8-diazabicyclo[3.2.1]octan-3-yl)-8-fluoro-2-((1-(pyrrolidin-1-ylmethyl)cyclopropyl)methoxy)pyrido[4,3-d]pyrimidin-7-yl)-5-cyclopropyl-4-methylpyridin-2-amine] | > 1000 nM
5 | Oc1cc(N2CCc3c(nc(OC[C@@]45CCCN4C[C@H](F)C5)nc3N3C[C@H]4CC[C@@H](C3)N4)C2)c2c(F)c(F)ccc2c1 [Example 204, 4-(4-((1R,5S)-3,8-diazabicyclo[3.2.1]octan-3-yl)-2-(((2R,7aS)-2-fluorotetrahydro-1H-pyrrolizin-7a(5H)-yl)methoxy)-5,8-dihydropyrido[3,4-d]pyrimidin-7(6H)-yl)-5,6-difluoronaphthalen-2-ol] | 11 nM
6 | CC[C@@H]1CCc2cc(O)cc(-c3ncc4c(N5CC6CCC(C5)N6)nc(OC[C@@]56CCCN5C[C@H](F)C6)nc4c3F)c21 (single isomer, unassigned) [Example 221, (R)-7-(4-((1R,5S)-3,8-diazabicyclo[3.2.1]octan-3-yl)-8-fluoro-2-(((2R,7aS)-2-fluorotetrahydro-1H-pyrrolizin-7a(5H)-yl)methoxy)pyrido[4,3-d]pyrimidin-7-yl)-1-ethyl-2,3-dihydro-1H-inden-5-ol or (S)-7-(4-((1R,5S)-3,8-diazabicyclo[3.2.1]octan-3-yl)-8-fluoro-2-(((2R,7aS)-2-fluorotetrahydro-1H-pyrrolizin-7a(5H)-yl)methoxy)pyrido[4,3-d]pyrimidin-7-yl)-1-ethyl-2,3-dihydro-1H-inden-5-ol] | 875 nM
7 | CC1Cc2cc(O)cc(-c3ncc4c(N5C[C@H]6CC[C@@H](C5)N6)nc(OC[C@@]56CCCN5C[C@H](F)C6)nc4c3F)c2C1 (stereo partly drawn) [Example 266, 7-(4-((1R,5S)-3,8-diazabicyclo[3.2.1]octan-3-yl)-8-fluoro-2-(((2R,7aS)-2-fluorotetrahydro-1H-pyrrolizin-7a(5H)-yl)methoxy)pyrido[4,3-d]pyrimidin-7-yl)-2-methyl-2,3-dihydro-1H-inden-5-ol] | 52 nM
8 | CC1CCCc2cc(O)cc(-c3ncc4c(NCC5(N(C)C)CCC5)nc(OC[C@@]56CCCN5C[C@H](F)C6)nc4c3F)c21 (stereo partly drawn) [Example 421, 4-(4-(((1-(dimethylamino)cyclobutyl)methyl)amino)-8-fluoro-2-(((2R,7aS)-2-fluorotetrahydro-1H-pyrrolizin-7a(5H)-yl)methoxy)pyrido[4,3-d]pyrimidin-7-yl)-5-methyl-5,6,7,8-tetrahydronaphthalen-2-ol] | 26 nM
9 | CN1CCCc2cc(O)cc(-c3ncc4c(N5C[C@H]6CC[C@@H](C5)N6)nc(OC[C@@]56CCCN5C[C@H](F)C6)nc4c3F)c21 [Example 359, 8-(4-((1R,5S)-3,8-diazabicyclo[3.2.1]octan-3-yl)-8-fluoro-2-(((2R,7aS)-2-fluorotetrahydro-1H-pyrrolizin-7a(5H)-yl)methoxy)pyrido[4,3-d]pyrimidin-7-yl)-1-methyl-1,2,3,4-tetrahydroquinolin-6-ol] | 35 nM
10 | Oc1cc(-c2c(Cl)cc3c(N4C[C@H]5CC[C@@H](C4)N5)nc(OC[C@@]45CCCN4C[C@H](F)C5)nc3c2OC2CC2)c2ccccc2c1 [Example 329, 4-(4-((1R,5S)-3,8-diazabicyclo[3.2.1]octan-3-yl)-6-chloro-8-cyclopropoxy-2-(((2R,7aS)-2-fluorotetrahydro-1H-pyrrolizin-7a(5H)-yl)methoxy)quinazolin-7-yl)naphthalen-2-ol] | 260 nM
11 | Oc1cc2c(c(-c3ccc4c(N5C[C@H]6CC[C@@H](C5)N6)nc(OC[C@@]56CCCN5C[C@H](F)C6)nc4c3F)c1)C1CC1CC2 (stereo partly drawn) [Example 295, 7-(4-((1R,5S)-3,8-diazabicyclo[3.2.1]octan-3-yl)-8-fluoro-2-(((2R,7aS)-2-fluorotetrahydro-1H-pyrrolizin-7a(5H)-yl)methoxy)quinazolin-7-yl)-1a,2,3,7b-tetrahydro-1H-cyclopropa[a]naphthalen-5-ol] | 183 nM
12 | C#Cc1c(F)ccc2cc(O)cc(-c3ncc4c(N5CC6CCCNC6C5)nc(OC[C@@]56CCCN5C[C@H](F)C6)nc4c3F)c12 (stereo partly drawn) [Example 52, 5-ethynyl-6-fluoro-4-(8-fluoro-2-(((2R,7aS)-2-fluorotetrahydro-1H-pyrrolizin-7a(5H)-yl)methoxy)-4-(octahydro-6H-pyrrolo[3,4-b]pyridin-6-yl)pyrido[4,3-d]pyrimidin-7-yl)naphthalen-2-ol] | > 2500 nM
13 | O=S1(=O)[C@@H]2CC[C@H]1CN(c1nc(OC[C@@]34CCCN3C[C@H](F)C4)nc3c(F)c(-c4cc(O)cc5ccc(F)c(F)c45)ccc13)C2 [Example 166, (1R,5S)-3-(7-(7,8-difluoro-3-hydroxynaphthalen-1-yl)-8-fluoro-2-(((2R,7aS)-2-fluorotetrahydro-1H-pyrrolizin-7a(5H)-yl)methoxy)quinazolin-4-yl)-8-thia-3-azabicyclo[3.2.1]octane 8,8-dioxide] | > 2500 nM
14 | CCc1c(F)ccc2cc(O)cc(-c3ccc4c(N5C[C@H]6CC[C@@H](C5)N6)c(C#N)c(OC[C@@]56CCCN5C[C@H](F)C6)nc4c3)c12 [Example 172, 4-((1R,5S)-3,8-diazabicyclo[3.2.1]octan-3-yl)-7-(8-ethyl-7-fluoro-3-hydroxynaphthalen-1-yl)-2-(((2R,7aS)-2-fluorotetrahydro-1H-pyrrolizin-7a(5H)-yl)methoxy)quinoline-3-carbonitrile] | 1230 nM
15 | CCC1CCCc2cc(O)cc(-c3ncc4c(N5C[C@H]6CC[C@@H](C5)N6)nc(OC[C@@]56CCCN5C[C@H](F)C6)nc4c3F)c21 (stereo partly drawn) [Example 227, 4-(4-((1R,5S)-3,8-diazabicyclo[3.2.1]octan-3-yl)-8-fluoro-2-(((2R,7aS)-2-fluorotetrahydro-1H-pyrrolizin-7a(5H)-yl)methoxy)pyrido[4,3-d]pyrimidin-7-yl)-5-ethyl-5,6,7,8-tetrahydronaphthalen-2-ol] | 5 nM
16 | C#Cc1c(F)ccc2cc(O)cc(-c3ccc4c(C5C[C@H]6CC[C@@H](C5)N6)nc(OC[C@@]56CCCN5C[C@H](F)C6)nc4c3F)c12 (stereo partly drawn) [Example 137, 4-(4-((1R,5S)-8-azabicyclo[3.2.1]octan-3-yl)-8-fluoro-2-(((2R,7aS)-2-fluorotetrahydro-1H-pyrrolizin-7a(5H)-yl)methoxy)quinazolin-7-yl)-5-ethynyl-6-fluoronaphthalen-2-ol] | > 2500 nM
17 | CC12CC1CCc1cc(O)cc(-c3ccc4c(N5C[C@H]6CC[C@@H](C5)N6)nc(OC[C@@]56CCCN5C[C@H](F)C6)nc4c3F)c12 (stereo partly drawn) [Example 281, 7-(4-((1R,5S)-3,8-diazabicyclo[3.2.1]octan-3-yl)-8-fluoro-2-(((2R,7aS)-2-fluorotetrahydro-1H-pyrrolizin-7a(5H)-yl)methoxy)quinazolin-7-yl)-7b-methyl-1a, 2,3,7b-tetrahydro-1H-cyclopropa[a]naphthalen-5-ol] | 537 nM
18 | C#Cc1c(F)ccc2cc(O)cc(-c3ncc4c(C56CCN(CC5)CC6)nc(OC[C@@]56CCCN5C[C@H](F)C6)nc4c3F)c12 [Example 71, 5-ethynyl-6-fluoro-4-(8-fluoro-2-(((2R, 7aS)-2-fluorotetrahydro-1H-pyrrolizin-7a(5H)-yl)methoxy)-4-(quinuclidin-4-yl)pyrido[4,3-d]pyrimidin-7-yl) naphthalen-2-ol] | > 2500 nM
19 | C#Cc1cccc2cc(O)cc(-c3ccc4c(N5C[C@H]6CC[C@@H](C5)N6)c(C(F)(F)F)c(OC[C@@]56CCCN5C[C@H](F)C6)nc4c3)c12 [Example 184, 4-(4-((1R,5S)-3,8-diazabicyclo[3.2.1]octan-3-yl)-2-(((2R,7aS)-2-fluorotetrahydro-1H-pyrrolizin-7a(5H)-yl)methoxy)-3-(trifluoromethyl)quinolin-7-yl)-5-ethynylnaphthalen-2-ol] | > 2500 nM
20 | CC1(C)CCc2cc(O)cc(-c3ncc4c(N5C[C@H]6CC[C@@H](C5)N6)nc(OC[C@@]56CCCN5C[C@H](F)C6)nc4c3F)c21 [Example 299, 7-(4-((1R,5S)-3,8-diazabicyclo[3.2.1]octan-3-yl)-8-fluoro-2-(((2R,7aS)-2-fluorotetrahydro-1H-pyrrolizin-7a(5H)-yl)methoxy)pyrido[4,3-d]pyrimidin-7-yl)-1,1-dimethyl-2,3-dihydro-1H-inden-5-ol] | 945 nM
